Key:
αM I domain = molecular target: T1, αM I domain (Homo sapiens, UniProt P11215); test: Inhibition of antibody binding to immobilized αM I domain-GST fusion; conditions: for inhibition at 50 µM: read-out: inhibition of mAb LM2/1 binding
T1 construct: immobilizing 20 ng/well recombinant αM I domain-GST fusion in 96-well plates
Description: (§1) Inhibition of antibody binding to the integrins. The αM I domain or purified αMβ2 integrin (50 ng/well) were coated on microtiter wells followed by saturation of the wells with 1% BSA in PBS/0.05% Tween20. The DDGW peptide or the compounds at concentrations indicated were preincubated for 30 minutes with the integrin, followed by addition of the antibodies LM2/1, MEM170, OKM-10, IB4 or a control IgG at a 1 μg/ml final concentration. The antibodies LM2/1 and MEM170 recognize the αM integrin I domain, whereas the epitope for OKM-10 is located outside the αM I domain (Koivunen et al., 2001; Li et al., 1995; Stefanidakis et al., 2003). The antibodies were incubated for 45 minutes followed by detection of the bound antibodies with a peroxidase conjugated anti-mouse antibody.

THP-1 cells [1] = test: THP-1 transwell migration on fibrinogen; type: cell-based, Human; conditions: 25 μM, 40 nM PDBu
Description: (§2) Cell adhesion and migration. Cell adhesion was performed as described (Koivunen et al., 2001). Briefly, THP-1 cells (50 000/well) were stimulated with 50 nM PDBu (4β-phorbol-12,13-dibutyrate, SigmaAldrich) and allowed to bind to the fibrinogen coated microtiter wells (10 μg/ml) in the presence or absence of compounds or DMSO in serum-free RPMI medium containing 0.1% BSA. Non-adherent cells were removed by gentle washing with PBS or 2.5 mM EDTA in PBS, and adherent cells were quantitated with a phosphatase assay (Koivunen et al., 2001). Alternatively, THP-1 cells were stimulated with 20 nM PDBu and allowed to adhere on uncoated plastic overnight. Nonadherent cells were removed by washing with PBS followed by six washes with 2.5 mM EDTA in PBS. Cell migration was done using transwells (5 μm pore size) coated with 40 μg/ml LLG-C4-GST or fibrinogen (Koivunen et al., 2001). THP-1 and OCI-AML-3 cells (50 000 cells/100 μl) were allowed to migrate overnight in 10% FBS/RPMI medium in the presence or absence of peptides or compounds and stimulating cell migration with 40 nM PDBu. Gelatinase-selective inhibitor I (InhI) at a 50 μM concentration (Calbiochem) was used to evaluate the level of gelatinase-dependent migration on fibrinogen. Migrated cells were stained with crystal violet and counted (Koivunen et al., 2001). […]

OCI-AML-3 cells [2] = test: OCI-AML-3 transwell migration on fibrinogen; type: cell-based; conditions: 25 μM, 40 nM PDBu
Description: as §2

[3] = test system: OCI-AML-3 acute myeloid leukemia cells; test: Cell viability/toxicity, OCI-AML-3; type: cell-based; conditions: 48 h, serum-containing medium, 50 μM, data not shown
Description: (§3) Cell culture. Human monocytic leukemia THP-1, OCI-AML-3 acute myeloid leukemia and human HT1080 fibrosarcoma cells were cultured as described (Koivunen et al., 1999; Koivunen et al., 2001; Stefanidakis et al., 2003). The cell viability was measured using an 3-[4,5-dimethylthiazol-2-yl]-2,5-diphenyl tetrazolium bromide assay as described (Bjorklund et al., 2004).
(§4) We next evaluated the ability of DDGW peptide and the chemicals to compete with antibody binding to immobilized αM I domain-GST fusion. […] The epitope of this antibody is located in the β2 I-like domain (FIG. 4B). […] Before conducting cell-based experiments, we tested possible toxicity of the chemicals. The compounds were incubated with THP-1 monocytic leukemia and OCI-AML-3 acute myeloid leukemia cells for 48 h in serum-containing cell culture medium.

[4] = test system: THP-1 monocytic leukemia cells; test: Cell viability/toxicity, THP-1; type: cell-based, Human; conditions: 48 h, serum-containing medium, 50 μM, data not shown
Description: as §3, §4

THP-1 cells [5] = test: THP-1 transwell migration on LLG-C4-GST coating; type: cell-based, Human
Description: Cell adhesion and migration. Cell adhesion was performed as described (Koivunen et al., 2001). Briefly, THP-1 cells (50 000/well) were stimulated with 50 nM PDBu (4β-phorbol-12,13-dibutyrate, SigmaAldrich) and allowed to bind to the fibrinogen coated microtiter wells (10 μg/ml) in the presence or absence of compounds or DMSO in serum-free RPMI medium containing 0.1% BSA. Non-adherent cells were removed by gentle washing with PBS or 2.5 mM EDTA in PBS, and adherent cells were quantitated with a phosphatase assay (Koivunen et al., 2001). Alternatively, THP-1 cells were stimulated with 20 nM PDBu and allowed to adhere on uncoated plastic overnight. Nonadherent cells were removed by washing with PBS followed by six washes with 2.5 mM EDTA in PBS. Cell migration was done using transwells (5 μm pore size) coated with 40 μg/ml LLG-C4-GST or fibrinogen (Koivunen et al., 2001). THP-1 and OCI-AML-3 cells (50 000 cells/100 μl) were allowed to migrate overnight in 10% FBS/RPMI medium in the presence or absence of peptides or compounds and stimulating cell migration with 40 nM PDBu. Gelatinase-selective inhibitor I (InhI) at a 50 μM concentration (Calbiochem) was used to evaluate the level of gelatinase-dependent migration on fibrinogen. Migrated cells were stained with crystal violet and counted (Koivunen et al., 2001). Migration of HT1080 cells on serum coated transwells was conducted as described (Koivunen et al., 1999).

αM I domain / proMMP-9 = molecular target: T2, αM I domain / proMMP-9 (Homo sapiens, UniProt P11215); test: proMMP-9 binding to the αM integrin I domain; conditions: 10 μM
T2 construct: Soluble αM integrin I domain-GST fusion (2.5 μg/ml) was added; made in house
Description: proMMP-9 and fibrinogen binding to the αM integrin I domain. […] The resulting MMP-9 with this mutation is structurally identical to the wild type protein (Rowsell et al., 2002). ProMMP-9-ΔHC-E^402Q, intact proMMP-9 or fibrinogen (100 ng/well) was coated on microtiter wells in TBS followed by saturation of the wells with 1% BSA in PBS/0.05% Tween20. Soluble αM integrin I domain-GST fusion (2.5 μg/ml) was added in the presence or absence of peptides or compounds in 0.1% BSA/TBS/0.05% Tween20/1 mM CaCl2/1 mM MgCl2, and incubated for one hour. In some experiments 10 mM CaCl2 or 10 mM MgCl2 were used instead of 1 mM CaCl2/1 mM MgCl2. Bound GST fusion was detected with anti-GST antibody (1:2000 dilution) and peroxidase-conjugated anti-goat antibody (1:2000 dilution).

[6] = test system: leukocytes emigrated into the peritoneum; test: Thioglycollate-induced peritonitis, leukocyte emigration in vivo; set-up: species or system mice; conditions: i.v.
Description: Neutrophil emigration in vivo. The mouse experiments were approved by the ethical committee for the animal experiments at the University of Helsinki. Inflammation was induced in BALB/cOlaHsd female maintained in the Viikki Laboratory Animal Centre by injecting 1 ml 4% thioglycollate broth in PBS i.p. followed by intravenous injections of chemicals (200 μl at a 20, 5 or 1 μg/ml concentration) or PBS after five minutes. Cells emigrated in the peritoneum after 3 or 24 h were counted using a hemocytometer. Statistical significance between groups in the peritonitis model was calculated with one-way ANOVA and found differences were analyzed by Bonferroni pairwise multiple comparison tests. Results with p<0.01 were deemed significant.

αM I domain-GST fusion = molecular target: T3, αM I domain-GST fusion (Homo sapiens, UniProt P11215); test: DDGW-phage binding competition assay; conditions: dilution series 10 μM to 150 nM; mean of three independent experiments; read-out: IC50 for the inhibition of DDGW-phage binding to the αM I domain
T3 construct: immobilizing 20 ng/well recombinant αM I domain-GST fusion in 96-well plates
Description: Screening of the compound library. A combinatorial library of 10 000 small molecules was purchased from ChemBridge (San Diego, Calif.). A competition assay with the DDGW peptide bearing phage was set up by immobilizing 20 ng/well recombinant αM I domain-GST fusion in 96-well plates (Michishita et al., 1993). The compounds were used in pools comprising eight compounds, each at a 5 μM concentration and DMSO at a 1.25% concentration. After preincubation of the compounds in the wells, DDGW phage was added (3×10^8 transducing units/well). As controls, soluble DDGW peptide and a control peptide, and an unrelevant phage were included in every plate. Phage binding was detected with an anti-phage antibody as described (Bjorklund et al., 2004). Pools with inhibitory activity were re-tested as single compounds. The DDGW-phage inhibiting activity of these hits at a 10 μM concentration is shown in supplementary data. To calculate the IC50 values for the compounds, dilution series from the DDGW peptide and compounds were made (10 μM to 150 nM) and DDGW phage binding was measured. No inhibitor (DMSO as a vehicle) was used as 100% binding after subtracting the background value obtained with an irrelevant control phage.

αMβ2 integrin = αMβ2 integrin (Homo sapiens, UniProt P11215); test: Inhibition of antibody binding to purified αMβ2 integrin; conditions: 25 μM; epitope in β2 I-like domain
Description: as §1

THP-1 cells [7] = test: THP-1 adhesion to uncoated plastic; type: cell-based, Human; conditions: 20 nM PDBu; 25 μM compounds; overnight
Description: as §2

[8] = test system: HT1080 fibrosarcoma cells; test: HT1080 migration on serum coated transwells; type: cell-based, human
Description: as §2

THP-1 cells [9] = test: THP-1 adhesion to fibrinogen; type: cell-based, Human
Description: as §2

αL I domain = molecular target: T4, αL I domain (Homo sapiens, UniProt P20701); test: Antibody binding to αL I domain
T4 sequence (P20701 156-327 limits assumed): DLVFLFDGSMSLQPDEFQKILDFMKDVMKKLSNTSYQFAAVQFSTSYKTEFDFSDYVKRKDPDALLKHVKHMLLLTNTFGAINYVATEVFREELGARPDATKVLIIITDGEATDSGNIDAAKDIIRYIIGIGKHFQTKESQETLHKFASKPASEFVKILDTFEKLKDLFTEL

OCI-AML-3 cells [10] = test: Pericellular gelatinase-dependent uPAR cleavage; type: cell-based; conditions: 20 μM; PDBu stimulated; 48 hours
Description: Cellular cleavage of the urokinase-plasminogen activator receptor. Pericellular gelatinase-dependent uPAR cleavage was performed as described (Bjorklund et al., 2004). Briefly, OCI-AML-3 cells were stimulated with PDBu or left untreated and cultured for 48 hours in the presence of 20 μM IMB-10, the gelatinase-selective inhibitor (InhI) or vehicle (DMSO). uPAR and the cleaved form of uPAR D2+3 was detected with western blotting using a polyclonal antibody to uPAR (399R, American Diagnostica).

CC[C@H](C)C(=O)O[C@H]1C[C@@H](C)C=C2C=C[C@H](C)[C@H](CC[C@@H]3C[C@@H](O)CC(=O)O3)[C@H]21 [lovastatin, reference compound] was tested, and the “effect on antibody binding” value (αM I domain; DDGW peptide 100 μM, chemical competitors 50 μM) was “only a marginal effect”.

For CCN1C(=O)/C(=C\c2ccc(OCCCOc3cc(C)cc(C)c3)c(OC)c2)SC1=S [IMB-2, (E)-5-(4-(3-(3,5-dimethylphenoxy)propoxy)-3-methoxybenzylidene)-3-ethyl-2-thioxothiazolidin-4-one], the “inhibition of migration on fibrinogen-coated transwells” value (“inhibition of migration” for short) (THP-1 cells [1]) was “less active”, the “inhibition of migration” value (OCI-AML-3 cells [2]) was “less active” and the “toxicity / effect on cell proliferation” value [3] was “no significant effect”. The “toxicity / effect on cell proliferation” value [4] was “no significant effect”, the “inhibition of cell migration on LLG-C4-GST” value (shortened to “inhibition of cell migration”) (THP-1 cells [5]; 25 μM) was “did not siginificantly inhibit cell migration” and the “inhibition of cell migration” value (THP-1 cells [5]; 100 μM, not shown) was “became inhibitory”.

Cc1ccccc1N1C(=O)/C(=C/C=C/c2ccccc2)SC1=S [IMB-10, (5Z)-5((E)-3-phenylallylidene)-2-thioxo-3-o-tolylthiazolidin-4-one] was tested, and the “inhibition of migration” value (THP-1 cells [1]) was “completely inhibited migration”, the “inhibition of migration” value (OCI-AML-3 cells [2]) was “completely inhibited migration” and the “αM I domain binding to proMMP-9-E402Q-ΔHC” value (αM I domain / proMMP-9; 10 mM Ca2+) was “nearly completely antagonized”. For the same compound, the “αM I domain binding to proMMP-9-E402Q-ΔHC” value (αM I domain / proMMP-9; 10 mM Mg2+) was “strong binding”, the “αM I domain binding to proMMP-9-E402Q-ΔHC” value (αM I domain / proMMP-9; equimolar Ca2+ and Mg2+) was “intermediate” and the “number of leukocytes emigrated into the peritoneum” value ([6]; after 24 hours) was “still low”. For the same compound, the “number of leukocytes emigrated into the peritoneum” value ([6]; three hours after induction) was “dose-dependent decrease”, the IC50 (αM I domain-GST fusion) was 400 ± 200 nM and the “inhibition of mAb IB4 binding to purified αMβ2” value (αMβ2 integrin) was “inhibited”. For the same compound, the “toxicity / effect on cell proliferation” value [3] was “no significant effect”, the “toxicity / effect on cell proliferation” value [4] was “no significant effect” and the “adhesion to plastic after washing with 2.5 mM EDTA” value (THP-1 cells [7]) was “resisted detachment and remained adherent”. For the same compound, the “β2 integrin-independent migration of HT1080 cells” value [8] was “no effect”, the “adhesion to fibrinogen after washings with EDTA” value (THP-1 cells [9]; 50 nM PDBu, 25 μM, 2.5 mM EDTA) was “more resistant” and the “cell adhesion in the absence of phorbol ester activation” value (THP-1 cells [9]; no phorbol ester, data not shown) was “did not increase cell adhesion”. The “binding of TS1/22 and MEM83 antibodies to αL I domain” value (αL I domain) was “similarly affected”, the “inhibition of cell migration” value (THP-1 cells [5]; 25 μM) was “potently inhibited cell migration” and the inhibition at 50 µM (αM I domain) was 75%. For the same compound, the “inhibition of uPAR cleavage (uPAR D2+3 form)” value (OCI-AML-3 cells [10]) was “could not be inhibited”.

In the case of O=C1/C(=C/c2ccc(-c3cccc([N+](=O)[O-])c3)o2)SC(=S)N1Cc1ccccc1 [IMB-6, (Z)-3-benzyl-5-((5-(3-nitrophenyl)furan-2-yl)methylene)-2-thioxothiazolidin-4-one], the “toxicity / effect on cell proliferation” value [3] is reported as “toxic”, the “toxicity / effect on cell proliferation” value [4] is reported as “toxic” and the inhibition at 50 µM (αM I domain) is reported as 75%.

Reference: patent US20080108677A1, “Thioxothiazolidinone Compounds For Use As Pharmaceuticals” (Karyon-CTT Ltd, priority 2004, published 2008)
